Where a name gives a salt, the structure may show the parent alone.
Legend:
cholesterol biosynthesis = test: Inhibition of cholesterol biosynthesis; type: biochemical
[1] = biological target: T1, 3-hydroxy-3-methylglutaryl-CoA reductase (Rattus norvegicus, UniProt P51639); test: Inhibition of 3-hydroxy-3-methylglutaryl-CoA reductase; type: biochemical; conditions: enzyme: microsome of rat liver; read-out: Concentration to inhibit 50% of 3-hydroxy-3-methylglutaryl-CoA reductase (converted)
T1 construct: Employed as an enzyme microsome of rat liver; from tissue; host or cells: rat liver microsomes
T1 sequence (P51639 1-887): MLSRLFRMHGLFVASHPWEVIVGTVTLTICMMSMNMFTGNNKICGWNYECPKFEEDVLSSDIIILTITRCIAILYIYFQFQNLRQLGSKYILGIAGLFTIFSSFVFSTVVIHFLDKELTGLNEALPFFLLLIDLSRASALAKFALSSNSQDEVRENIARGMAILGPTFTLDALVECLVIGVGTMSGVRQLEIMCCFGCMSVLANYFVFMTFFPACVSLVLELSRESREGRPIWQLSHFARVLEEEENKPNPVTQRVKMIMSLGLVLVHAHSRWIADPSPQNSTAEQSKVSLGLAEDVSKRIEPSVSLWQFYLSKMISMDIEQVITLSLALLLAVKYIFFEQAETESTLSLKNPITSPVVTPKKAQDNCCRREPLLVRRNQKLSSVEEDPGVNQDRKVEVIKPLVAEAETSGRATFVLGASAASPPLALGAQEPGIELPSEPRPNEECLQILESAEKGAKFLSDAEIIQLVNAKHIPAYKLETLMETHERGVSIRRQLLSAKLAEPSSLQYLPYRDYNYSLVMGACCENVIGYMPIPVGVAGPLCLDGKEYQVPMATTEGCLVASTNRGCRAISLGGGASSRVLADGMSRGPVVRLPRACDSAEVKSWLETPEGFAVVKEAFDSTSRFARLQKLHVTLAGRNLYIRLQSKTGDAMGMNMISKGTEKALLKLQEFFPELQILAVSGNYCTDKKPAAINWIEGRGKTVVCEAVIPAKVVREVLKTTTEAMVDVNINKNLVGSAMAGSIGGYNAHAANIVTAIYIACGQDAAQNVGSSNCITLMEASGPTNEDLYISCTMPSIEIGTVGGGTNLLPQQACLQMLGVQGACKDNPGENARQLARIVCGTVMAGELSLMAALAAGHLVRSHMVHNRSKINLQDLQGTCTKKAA
Excerpt: Inhibition activity of cholesterol biosynthesis [determined according to the method disclosed in J. Biol. Chem., 234, 2835 (1959)] and inhibition activity on 3-hydroxy-3-methylglutaryl-CoA reductase [determined according to the method disclosed in Anal. Biochem., 31, 383 (1969)] of these compounds are summarized in Table 1.
*Employed as an enzyme microsome of rat liver.

[2] = test system: total serum cholesterol in beagle dogs; test: Lowering activity of blood cholesterol in beagle dogs; type: in vivo, beagle dog; conditions: beagle dogs, oral twice per day, 5 days
Excerpt: The test was to orally administer an encapsulated test sample twice per day, in the morning (9 o'clock) and evening (16 o'clock), for continuous 5 days, collect a blood sample in the morning after 5 days and determine a total cholesterol level in serum by a conventional method.

[3] = test system: serum cholesterol in rats; test: Lowering activity of blood cholesterol in rats; type: in vivo, rat; conditions: rats, oral, after 18 hours
Experimental: A lowering activity of blood cholesterol in rats was assayed on rats. The test was to orally administer a test sample suspended in water, collect a blood sample after 18 hours and determine a cholesterol level in serum by a conventional method.

Mouse = test: Acute toxicity in mouse; conditions: aqueous suspension
Experimental: (§1) Acute toxicity of ML-236B carboxylic acid derivatives (I) was determined in oral and intraperitoneal administration (both as an aqueous suspension).

Rat = test: Acute toxicity in rat; conditions: aqueous suspension
Experimental: as §1

Acute toxicity in mouse = conditions: in vivo, ip, LD50, mouse, aqueous suspension
Experimental: as §1

Acute toxicity in rat = conditions: in vivo, ip, LD50, rat, aqueous suspension
Experimental: as §1

[4] = p.o., listed as ML-236B Na salt

| SMILES | Concentration to inhibit 50% of cholesterol biosynthesis (cholesterol biosynthesis) [µg/mL] | IC50 [1] [nM] | Lowering rate of total serum cholesterol ([2]; 25 mg/kg/day) [%] | Lowering rate of total serum cholesterol ([2]; 100 mg/kg/day) [%] | Lowering rate of serum cholesterol ([3]; 5 mg/kg, 5 mg/kg) [%] | Lowering rate of serum cholesterol ([3]; 20 mg/kg, 20 mg/kg) [%] | LD50 (Mouse; i.p.) [mg/kg] | LD50 (Mouse; p.o.) | LD50 (Rat; i.p.) [mg/kg] | LD50 (Rat; p.o.) | inhibition in vivo at 25 mg/kg/day ([2]; Canis lupus familiaris, po, 120 h, 25 mg/kg/day, read-out: Lowering rate of total serum cholesterol) [%] | inhibition in vivo at 100 mg/kg/day ([2]; Canis lupus familiaris, po, 120 h, 100 mg/kg/day, read-out: Lowering rate of total serum cholesterol) [%] | inhibition in vivo at 5 mg/kg ([3]; Rattus norvegicus, po, 18 h, 5 mg/kg, read-out: Lowering rate of serum cholesterol) [%] | inhibition in vivo at 20 mg/kg ([3]; Rattus norvegicus, po, 18 h, 20 mg/kg, read-out: Lowering rate of serum cholesterol) [%] | LD50 (Acute toxicity in mouse) [mg/kg] | LD50 (Mouse; [4]) | LD50 (Acute toxicity in rat) [mg/kg] | LD50 (Rat; [4]) | LD50 (Mouse; p.o., listed as Ca salt) | LD50 (Rat; p.o., listed as Ca salt) |
| --- | --- | --- | --- | --- | --- | --- | --- | --- | --- | --- | --- | --- | --- | --- | --- | --- | --- | --- | --- | --- |
| CCC(C)C(=O)OC1CCC=C2C=CC(C)C(CCC(O)CC(O)CC(=O)O)C21 (centres unmarked) [Arginine, Arginine salt of ML-236B carboxylic acid] | 0.007 | 441 | 26 | 45 | 19.6 | 24.1 | > 500 | > 5,000 mg/kg | > 500 | > 5,000 mg/kg | – | – | – | – | – | – | – | – | – | – |
| CCC(C)C(=O)OC1CCC=C2C=CC(C)C(CCC(O)CC(O)CC(=O)O)C21 (centres unmarked) [Na, Sodium ML-236B carboxylate] | 0.006 | 392 | – | – | – | – | – | – | – | – | 24 | 47 | 20.6 | 23.1 | > 500 | > 2,000 mg/kg | > 500 | > 2,000 mg/kg | – | – |
| CCC(C)C(=O)OC1CCC=C2C=CC(C)C(CCC(O)CC(O)CC(=O)O)C21 (centres unmarked) [Ca, Calcium ML-236B carboxylate] | 0.006 | – | 28 | 44 | 16.5 | 20.9 | > 500 | – | > 500 | – | – | – | – | – | – | – | – | – | > 2,000 mg/kg | > 2,000 mg/kg |
